# In patent US7888355B2, “Compositions and methods for inhibiting growth and metastasis of melanoma” (Burnham Institute for Medical Research, priority 2007, dated 2011):
# Tested on: Human melanoma LU1205 cells
# Assay: LU1205 lung metastasis in nude mice
# Format: in vivo, mouse
# Conditions: compound every second day, analysis 60 days after injection
# Description: Tumor growth and metastasis in vivo. GFP-expressing SW1 cells were trypsinized, resuspended in PBS, and injected subcutaneously (1×10^6) into the lower flank of 6 to 7-week-old mice. When tumors reached a size of about 50 mm^3, the indicated compounds (100 μL of the vehicle—10% DMSO, 70% Cremophor/ethanol (3:1), and 20% PBS and 1.0 mg/kg of celastrol or 0.5 mg/kg of the derivatives CA16, CA19) were injected i.p. every alternate day. Body weight and tumor growth were monitored every 2 days. GFP-expressing SW1 tumors were monitored in vivo on shaved mice with a light box illuminated by blue light fiber optics (Lightools Research; Encinitas, Calif.), and imaging was carried out with a digital camera (Nikon D100). Tumors were measured for up to 3 weeks. For metastases studies, LU1205 cells (1×10^6) were injected i.v. into the lateral tail vein of nude mice. At the end of the experiment, the lungs and tumors were excised and weighed. To detect metastatic lesions, lungs were fixed in formalin, embedded in paraffin and subjected to hematoxylin and eosin staining.
# The effect of CSL and CSL derivatives, CA16 and CA19, on the metastatic capacity of melanoma cells was then determined. Human melanoma LU1205 cells were injected into the tail vein of nude mice, followed by administration of the compounds every second day. This approach allows monitoring of changes in the number of lesions formed on the lungs, a primary organ for tumor cell growth under this experimental approach. Analysis performed 60 days following injection determined changes in the number and size of metastatic lesions in each of the experimental groups.
structure (smiles),measurement,value
CC1=C(O)C(=O)C=C2C1=CC=C1[C@@]2(C)CC[C@@]2(C)[C@@H]3C[C@](C)(C(=O)O)CC[C@]3(C)CC[C@]12C [Celastrol],"growth of large, medium and small sized lesions in the lungs",efficient in inhibiting growth of large medium and small sized lesions in the lungs
